Test results reported in patent US6962912B2, “Substituted pyrazolo[4,3-e]diazepines, pharmaceutical compositions containing them, use as medicinal products and processes for preparing them” (Warner-Lambert LLC, priority 2000, dated 2005).

Legend:
PDE4 = experiment: Inhibition of PDE4 (cytosolic enzyme preparation from U937 line), compared with rolipram; assay type: biochemical, human; settings: PDE4 enzyme preparation obtained from the U937 line
production of TNFα = experiment: in vivo TNFα model in Wistar rats (LPS-induced); settings: oral administration 30 min before i.p. LPS; plasma 90 min after LPS; male Wistar rats
Excerpt: TNFα is a cytokine which plays a central role in the mechanisms of inflammation. Its production can be induced by an injection of lipopolysaccharide (LPS). It has been shown that the increase in intracellular cAMP, produced in particular by PDE4 inhibitors, decreases the production of TNFα in in vitro and in vivo models. It is thus a matter here of quantifying in vivo the anti-inflammatory potential of the compounds of the invention, administered orally (p.o.) by measuring the inhibition of the production of TNFα in the plasma of rats, these rats having received an intraperitoneal (i.p.) injection of lipopolysaccharide (LPS). The treatment with the compounds of the invention or the vehicle are [sic] administered orally to male Wistar rats, 30 min before the injection of LPS. The rats are sacrificed 90 min after the stimulation with LPS, the blood is collected onto EDTA and the TNFα concentration is measured in each plasma sample. […] References • Chen, Y. L., Le Vraux, V., Giroud, J. P. and Chauvelot-Moachon L. (1994). Anti-tumor necrosis factor properties of non-peptide drugs in acute-phase responses. […] Int. J. Immunopharmacol., 16 (10), 805-816. Model of Eosinophilia in Rats

IC50 (PDE4) [nM] | melting point [°C] | Compound | inhibition of the production of TNFα in the plasma of rats (production of TNFα)
6.2 |  | CCC(C)c1nn(CC)c2c1N=C(c1ccccc1)CNC2=O (racemic) [Example 68, (±)3-sec-Butyl-1-ethyl-5-phenyl-6,7-dihydro-1H-pyrazolo[4,3-e][1,4]diazepin-8-one] | excellent activity
1 | 218 | CCn1nc(C(C)C)c2c1C(=S)NCC(C(C)(C)C)=N2 [Example 67, 5-tert-Butyl-1-ethyl-3-isopropyl-6,7-dihydro-1H-pyrazolo[4,3-e][1,4]diazepin-8-thione] | 
0.22 | 243 | CCn1nc(C(C)C)c2c1C(=NC#N)NCC(C(C)(C)C)=N2 [Example 80, 5-tert-Butyl-1-ethyl-3-isopropyl-6,7-dihydro-1H-pyrazolo-[4,3-e][1,4]diazepin-8-ylidenecyanamide] | 
0.54 | 245 | CCn1nc(C(C)C)c2c1C(=NC#N)NCC(c1ccc(C)cc1)=N2 [Example 81, 1-Ethyl-3-isopropyl-5-p-tolyl-6,7-dihydro-1H-pyrazolo-[4,3-e][1,4]diazepin-8-ylidenecyanamide] | 
62 | 150 | CCn1nc(C(C)C)c2c1C(=O)NCC(c1ccc(OC)cc1)=N2 [Example 82, 1-Ethyl-3-isopropyl-5-(4-methoxyphenyl)-6,7-dihydro-1H-pyrazolo[4,3-e][1,4]diazepin-8-one] | 
60 | 265 | CCn1nc(C)c2c1C(=NC#N)NCC(c1ccc(OC)cc1)=N2 [Example 84, 1-Ethyl-3-methyl-5-(4-methoxyphenyl)-6,7-dihydro-1H-pyrazolo[4,3-e][1,4]diazepin-8-ylidenecyanamide] | 
200 | 142 | CCCn1nc(C(C)C)c2c1C(=O)NCC(c1ccc(OC)cc1)=N2 [Example 85, 3-Isopropyl-5-(4-methoxyphenyl)-1-propyl-6,7-dihydro-1H-pyrazolo[4,3-e][1,4]diazepin-8-one] | 
310 | 180 | CCn1nc(C(C)(C)C)c2c1C(=O)NCC(c1ccc(OC)cc1)=N2 [Example 86, 3-tert-Butyl-1-ethyl-5-(4-methoxyphenyl)-6,7-dihydro-1H-pyrazolo[4,3-e][1,4]diazepin-8-one] | 
41 | 167 | CCCn1nc(C(C)(C)C)c2c1C(=O)NCC(c1ccc(OC)cc1)=N2 [Example 87, 3-tert-Butyl-5-(4-methoxyphenyl)-1-propyl-6,7-dihydro-1H-pyrazolo[4,3-e][1,4]diazepin-8-one] | 
2.1 | 300 | CCn1nc(C)c2c1C(=NC#N)NCC(c1ccc(O)cc1)=N2 [Example 88, 1-Ethyl-3-methyl-5-(4-hydroxyphenyl)-6,7-dihydro-1H-pyrazolo[4,3-e][1,4]diazepin-8-ylidenecyanamide] | 
900 | 208 | CCn1nc(C)c2c1C(=O)NCC(c1cc(OC)c(OC)c(OC)c1)=N2 [Example 91, 1-Ethyl-3-methyl-5-(3,4,5-trimethoxyphenyl)-6,7-dihydro-1H-pyrazolo[4,3-e][1,4]diazepin-8-one] | 
92 | 204 | CCn1nc(C)c2c1C(=O)NCC(c1cccc(O)c1)=N2 [Example 92, 1-Ethyl-5-(3-hydroxyphenyl)-3-methyl-6,7-dihydro-1H-pyrazolo[4,3-e][1,4]diazepin-8-one] | 
7.4 | 220 | CCn1nc(C)c2c1C(=O)NCC(c1ccccc1O)=N2 [Example 93, 1-Ethyl-5-(2-hydroxyphenyl)-3-methyl-6,7-dihydro-1H-pyrazolo[4,3-e][1,4]diazepin-8-one] | 
2.1 | 230 | CCn1nc(C(C)C)c2c1C(=O)NCC(c1ccc(O)cc1)=N2 [Example 94, 1-Ethyl-5-(4-hydroxyphenyl)-3-isopropyl-6,7-dihydro-1H-pyrazolo[4,3-e][1,4]diazepin-8-one] | 
15 | 230 | CCCn1nc(C(C)C)c2c1C(=O)NCC(c1ccc(O)cc1)=N2 [Example 95, 5-(4-Hydroxyphenyl)-3-isopropyl-1-propyl-6,7-dihydro-1H-pyrazolo[4,3-e][1,4]diazepin-8-one] | 
4.9 | 264 | CCn1nc(C(C)(C)C)c2c1C(=O)NCC(c1ccc(O)cc1)=N2 [Example 96, 3-tert-Butyl-1-ethyl-5-(4-hydroxyphenyl)-6,7-dihydro-1H-pyrazolo[4,3-e][1,4]diazepin-8-one] | 

The remaining lines, values behind:

Compound | IC50 (PDE4) [nM] | melting point [°C] | inhibition of the production of TNFα in the plasma of rats (production of TNFα)
CCn1nc(C)c2c1C(=O)NCC(C(C)(C)C)N2 (centres unmarked) [5-tert-Butyl-1-ethyl-3-methyl-4,5,6,7-tetrahydro-1H-pyrazolo[4,3-e][1,4]diazepin-8-one] |  |  | excellent activity
CCn1nc(C)c2c1C(=O)NCC(C(C)(C)C)=N2 [Example 33, 5-tert-Butyl-1-ethyl-3-methyl-6,7-dihydro-1H-pyrazolo[4,3-e][1,4]diazepin-8-one] | 110 | 120 | 
CCn1nc(C(C)C)c2c1C(=O)NCC(C(C)(C)C)=N2 [Example 35, 5-tert-Butyl-1-ethyl-3-isopropyl-6,7-dihydro-1H-pyrazolo[4,3-e][1,4]diazepin-8-one] | 0.7 |  | excellent activity
CCn1nc(C(C)C)c2c1C(=O)NCC(c1ccc(C)cc1)=N2 [Example 36, 1-Ethyl-3-isopropyl-5-p-tolyl-6,7-dihydro-1H-pyrazolo[4,3-e][1,4]diazepin-8-one] | 0.39 |  | excellent activity
CCn1nc(C(C)C)c2c1C(=O)NCC(c1ccc(C#N)cc1)=N2 [Example 37, 4-(1-Ethyl-3-isopropyl-8-oxo-1,6,7,8-tetrahydro-pyrazolo[4,3-e][1,4]diazepin-5-yl)benzonitrile] | 0.97 |  | excellent activity
CCn1nc(C(C)C)c2c1C(=O)NCC(c1ccc(OC)cc1OC)=N2 [Example 39, 5-(2,4-Dimethoxyphenyl)-1-ethyl-3-isopropyl-6,7-dihydro-1H-pyrazolo[4,3-e][1,4]diazepin-8-one] | 9.1 |  | excellent activity
CCCn1nc(C(C)C)c2c1C(=O)NCC(C(C)(C)C)=N2 [Example 40, 5-tert-Butyl-3-isopropyl-1-propyl-6,7-dihydro-1H-pyrazolo[4,3-e][1,4]diazepin-8-one] | 8.2 |  | excellent activity
CCCn1nc(C(C)C)c2c1C(=O)NCC(c1ccc(C)cc1)=N2 [Example 41, 3-Isopropyl-1-propyl-5-p-tolyl-6,7-dihydro-1H-pyrazolo[4,3-e][1,4]diazepin-8-one] | 11 |  | excellent activity
CCCCc1nn(CC)c2c1N=C(c1ccccc1)CNC2=S [Example 52, 3-Butyl-1-ethyl-5-phenyl-6,7-dihydro-1H-pyrazolo[4,3-e][1,4]diazepin-8-thione] | 0.65 | 151.5 | 
CCn1nc(C)c2c1C(=O)NCC(c1cccnc1)=N2 [Example 53, 1-Ethyl-3-methyl-5-pyrid-3-yl-6,7-dihydro-1H-pyrazolo[4,3-e][1,4]diazepin-8-one] | 260 | 178 | 
CCn1nc(C)c2c1C(=O)NCC(c1ccccn1)=N2 [Example 54, 1-Ethyl-3-methyl-5-pyrid-2-yl-6,7-dihydro-1H-pyrazolo[4,3-e][1,4]diazepin-8-one] | 240 | 153 | 
CCn1nc(C(C)(C)C)c2c1C(=NC#N)NCC(c1ccccc1)=N2 [Example 57, 3-tert-Butyl-1-ethyl-5-phenyl-6,7-dihydro-1H-pyrazolo[4,3-e][1,4]diazepin-8-ylidene-cyanamide] | 0.13 | 250 | 
CCn1nc(C)c2c1C(=O)NCC(c1ccc(C(F)(F)F)cc1)=N2 [Example 60, 1-Ethyl-3-methyl-5-(4-trifluoromethylphenyl)-6,7-dihydro-1H-pyrazolo[4,3-e][1,4]diazepin-8-one] | 580 | 195 | 
CCCn1nc(C(C)C)c2c1C(=S)NCC(c1ccc(C)cc1)=N2 [Example 63, 3-Isopropyl-1-propyl-5-p-tolyl-6,7-dihydro-1H-pyrazolo[4,3-e][1,4]diazepin-8-thione] | 5 | 162.9 | 
CCCn1nc(C(C)(C)C)c2c1C(=S)NCC(C(C)(C)C)=N2 [Example 64, 3,5-Di-tert-butyl-1-propyl-6,7-dihydro-1H-pyrazolo[4,3-e][1,4]diazepin-8-thione] | 4.6 | 205 | 
CCCn1nc(C(C)C)c2c1C(=S)NCC(C(C)(C)C)=N2 [Example 65, 5-tert-Butyl-3-isopropyl-1-propyl-6,7-dihydro-1H-pyrazolo[4,3-e][1,4]diazepin-8-thione] | 1.5 | 165 | 
CCn1nc(C(C)C)c2c1C(=S)NCC(c1ccc(C)cc1)=N2 [Example 66, 1-Ethyl-3-isopropyl-5-p-tolyl-6,7-dihydro-1H-pyrazolo[4,3-e][1,4]diazepin-8-thione] | 0.63 | 178 | 
